Results taken from patent US20130164792A1, “METHOD FOR PRODUCING CRYSTALS OF MUTIVALENT METAL SALT OF (2R, 4R) MONATIN” (Ajinomoto Co., Inc., priority 2011, published 2013).

How the values were obtained:
[1] = Patent Literature 1; cited from earlier work
[2] = Measurement of solubility of Monatin metal salt in water; assay type: physicochemical; details: 1 g salt added to 1 g water, stirred at 25° C., filtrate analyzed by HPLC
Description: Solubility of a (2S,4R)Monatin potassium salt and a (2R,4R)Monatin potassium salt in water (H2O) was measured. 1 g of the (2S,4R)Monatin potassium salt or 1 g of the (2R,4R)Monatin potassium salt was added to 1 g of the water, the mixture was stirred at 25° C., a slurry was filtrated out, and the resulting filtrate was analyzed by HPLC. […] The solubility of the (2R,4R)Monatin potassium salt was higher than the solubility of the (2S,4R)Monatin potassium salt.
Then, Solubility of a (2S,4R)Monatin magnesium salt and a (2R,4R)Monatin magnesium salt in the water was measured. The solubility was measured in the same manner as above. For the (2S,4R)Monatin magnesium salt, firstly, the same amount of magnesium chloride was added to the (2S, 4R)Monatin potassium salt, and then ethanol was further added thereto. Then, the resulting slurry was filtrated and the wet crystal was dried under reduced pressure to prepare the (2S,4R)Monatin magnesium salt. For the (2R, 4R)Monatin magnesium salt, firstly, the same amount of magnesium chloride was added to the (2R,4R)Monatin potassium salt, and then methanol was further added thereto. Then, the resulting slurry was filtrated and the wet crystal was dried under reduced pressure to prepare the (2R, 4R)Monatin magnesium salt.

[3] = Isomerization reaction using (2S,4R)Monatin or (2R,4R)Monatin as substrate with purified racemase; assay type: biochemical; details: 50 μM PLP, 100 mM Tris-HCl (pH 8.0), 0.72 mg/mL enzyme, 25° C., 15 minutes, 1 U = 1 μmol Monatin isomerized per minute
Description: A reaction was carried out for 15 minutes using the purified racemase under the following condition. The reaction was carried out in 0.1 mL using an Eppendorf tube. After the reaction was terminated, an equal amount of a reaction stopping solution, 200 mM sodium citrate solution (pH 4.5) was added to the sample. HPLC was used for the analysis.
Reaction condition: 20 mM (2S,4R)Monatin or (2R,4R)Monatin, 50 μM PLP, 100 mM Tris-HCl (pH 8.0), 0.72 mg/mL racemase purified enzyme, 25° C., 120 rpm.
The (2S,4R)Monatin and the (2R,4R)Monatin were quantified by HPLC analysis. An analysis condition is as shown below.
Mobile phase: 20 mM KH2PO4/acetonitrile=100/5 Flow rate: 1.0 mL/minute Column temperature: 40° C.

solubility in water [2]	Molecule	also measured
	N[C@@H](C[C@@](O)(Cc1c[nH]c2ccccc12)C(=O)O)C(=O)O (single isomer, unassigned) [(2S,4S) isomer of 4-hydroxy-4-(3-indolylmethyl)-2-aminoglutaric acid]	sweetness compared with sucrose [1]: several hundreds times sweeter than sucrose
1.6 % by weight	N[C@H](C[C@](O)(Cc1c[nH]c2ccccc12)C(=O)O)C(=O)[O-].N[C@H](C[C@](O)(Cc1c[nH]c2ccccc12)C(=O)O)C(=O)[O-].[Mg+2] [(2R,4R)Monatin magnesium salt]	
37.8 % by weight	N[C@H](C[C@](O)(Cc1c[nH]c2ccccc12)C(=O)O)C(=O)[O-].[K+] [(2R,4R)Monatin potassium salt]	
14.5 % by weight	N[C@@H](C[C@](O)(Cc1c[nH]c2ccccc12)C(=O)O)C(=O)[O-].N[C@@H](C[C@](O)(Cc1c[nH]c2ccccc12)C(=O)O)C(=O)[O-].[Mg+2] [(2S,4R)Monatin magnesium salt]	
20.1 % by weight	N[C@@H](C[C@](O)(Cc1c[nH]c2ccccc12)C(=O)O)C(=O)[O-].[K+] [(2S,4R)Monatin potassium salt]	
	Rac39: racemase (SEQ ID NO:2) with C-terminal His tag, expressed in E. coli, converts (2S,4R)Monatin into (2R,4R)Monatin (protein, C-terminal His tag; Obtained from environmental sample) MAETNLHKKINIEMHFDNLVSNFEKIRKLNNENVDVADKVIPVVKANAYNFGVYDITKTFLSMKEPQTKFFVFSLEEGIELRKFFPSIERIFVIMGALENDAELFKKYNLTPVVNSFYQLEVCKKHNIKNIVLQFNTGMNRNGFEVKELRKVKQICDSEKFNVLMVMSHFACSDNMASEVNAYQINEYKKVARVFNDKKIIKSFPATFGILNFNTINGLVNSFRPGRLYYGFLPKEGYDKNLFSVYVYLSKDKEGNIILPFGKEDGIDYGEQAYILVDKNKAYVKQVDSHKVILDTNDKTLVGKKVYLIKNGMGYDEFKEQSKQDLLTFFGKIFKNCDKNKNLCNINATRKRAKKDNKFVPKAIFKKDAKGQYTQYTTTLFEKREVSADGIVGYDATRAVKKGDKLGVIFNGHMDGFYQPMSNKHVFVYVKNKYKQLIPCEFYGLISSDQAVIKIPNDEFDNIEYGAKVVVFDKNHPITLFEQATGVSRDELFYGLDKTYRIAEQK	activity to form the (2S,4R)Monatin from the (2R,4R)Monatin ([3]; 20 mM (2R,4R)Monatin): 0.09 U/mg; activity to form the (2R,4R)Monatin from the (2S,4R)Monatin ([3]; 20 mM (2S,4R)Monatin): 0.14 U/mg
